From US20190083495A1, “Methods Of Preventing Or Reducing A Fibrotic Response Using CSF1R Inhibitors” (Massachusetts Institute of Technology, priority 2016, published 2019)
“Also recorded” adds a separate entry of the source.

What was measured:
[1] = system: Peritoneal exudate macrophages; assay: Phagocytosis assay with fluorospheres; type: cell-based, C57BL/6 mice; details: macrophages from treated mice, 90 minutes with fluorospheres, vs vehicle
Text: (§1) For in vivo wound healing: C57BL/6 mice were anesthetized (same as above) and shaved, and skin incisions 1.5 cm in length were made along the midline. Each incision was then wound clipped shut for both vehicle and daily GW2580-treated C57BL/6 mice. Wound clips were removed and then replaced each imaging day up until day 7 (required to maintain them up until at least this time), after which clips were left off completely. Photos were acquired on days 0, 1, 4, 7, 10, and 14 post-incision. After 14 days, mice were sacrificed, and skin samples were prepared for histological assessment (H&E and Masson's Trichrome) of both vehicle and GW2580 treatment groups. Cross-sections through the incision line were generated to assess the level of in vivo healing following a 14-day treatment regimen. For IP innate immune cell counts, FACS, and phagocytosis assays: cells were isolated by peritoneal lavage with 8 mL DPBS, diluted into RPMI, and then subsequently counted, and aliquoted either for staining and FACS analysis (as described above), or for phagocytosis assays. […] Following appropriate incubation times, samples were read in a black-wall 96-well plate with a Tecan fluorescent-capable Infinite M1000 plate reader.

C57BL/6 mice [2] = assay: In vivo wound healing of skin incisions
Text: as §1, with “assays. Peritoneal exudate macrophages isolated by IP lavage from (n=5) mice in each treatment group were immediately plated (400,000 cells/well in a 24-well plate) and incubated with fluorospheres for 90 minutes to determine phagocytic activity. 1 μm orange fluorospheres (540/560) (Cat# F13082, Invitrogen, Carlsbad, Calif.) were added to each well in a volume of 500 μL from an initial dilution of 20 μL into 10 mL. After addition, plates were spun down at 1,000 rpm for 1 min, and then placed in an incubator for 90 minutes to allow IP macrophages time to phagocytose the 1 μm diameter fluorospheres. Following the 90-minute incubation, all wells were fixed with 4% paraformaldehyde and stored at 4 C prior to imaging using a fluorescent and brightfield-capable EVOS microscope (Advanced Microscopy Group).” for “assays.”

CXCL10 = CXCL10 ELISA of protein lysates from retrieved alginate spheres and tissue; type: in vivo, C57BL/6 mice; details: lysates of alginate spheres and tissue retrieved at 14 days
VEGF = VEGF Luminex protein quantification of protein lysates; type: in vivo, C57BL/6 mice; details: lysates of alginate spheres and tissue retrieved at 14 days
Method: (§2) For targeted macrophage depletions, clodrosome (200 μL/mouse) (Encapsula Nano Sciences, Nashville, Tenn.) were injected intraperitoneally starting at −3 days (prior to implantation, day 0), and for every 7 days thereafter (so days −3, 4, and 11). To achieve neutrophil depletion, affinity purified anti-Ly6g (Clone 1A8) antibody (250 ug/mouse) (BioLegend, San Diego, Calif.) was administered also starting at day −3, and every 3 days thereafter (except the day of implantation). For the combination therapy, in order to avoid drug-antibody interactions, each agent was administered 4 hours apart from one another. […]
Cytokine array analysis was performed using the Luminex Bio-Rad Bio-Plex Pro mouse cytokine panel based on Luminex beads (multiplexing both the 23 and 8-cytokine arrays) (Bio-Rad, Hercules, Calif.), according to manufacturer's instructions. 1:4 diluted mouse sera samples were analyzed for the time course, and protein lysates taken from fibrosed tissue and alginate microspheres, loaded at a concentration of 500 μg/mL (200 uL per sample), were run to compare cytokine responses across mock (saline) treated versus wildtype, knockout or serially perturbed/depleted C57BL/6 mice implanted with 500 μm SLG20 alginate spheres. […] The plate was then read on a BioPlex-200 plate reader, with absolute concentrations obtained through fitting a standard curve. […]

C57BL/6 mice [3] = assay: FACS analysis of immune cells dissociated from retrieved spheres, tissue and spleen; type: in vivo
Method: For targeted macrophage depletions, clodrosome (200 μL/mouse) (Encapsula Nano Sciences, Nashville, Tenn.) were injected intraperitoneally starting at −3 days (prior to implantation, day 0), and for every 7 days thereafter (so days −3, 4, and 11). To achieve neutrophil depletion, affinity purified anti-Ly6g (Clone 1A8) antibody (250 ug/mouse) (BioLegend, San Diego, Calif.) was administered also starting at day −3, and every 3 days thereafter (except the day of implantation). For the combination therapy, in order to avoid drug-antibody interactions, each agent was administered 4 hours apart from one another. To neutralize secreted CXCL13, anti-CXCL13 antibody (mAB470, R&D Systems) was injected i.p. in sterile 1×PBS at a dose of 100 μg/mouse, once every 3 days, starting 3 days prior to implantation as well. For selective macrophage inhibition and polarization, the CSF1R-targeted inhibitor GW2580 (LC Labs, Woburn, Mass.), was dissolved in a 1:1 DMSO/PEG400 solution, and injected daily (starting 1 day prior to implantation) at a dose of 160 mg/kg BW subcutaneously (s.c.), to eliminate concerns of vehicle directly perturbing responding immune cells as well as a recovering implant site.
Single-cell suspensions of freshly excised tissues were prepared using a gentleMACS Dissociator (Miltenyi Biotec, Auburn, Calif.) according to the manufacturer's protocol. […]

[4] = system: reactive oxygen specie (ROS); assay: ROS activity assessment of protein lysates from retrieved alginate spheres; type: in vivo, C57BL/6 mice; details: lysates from alginate spheres 14 days after IP implantation, two ROS substrates, vs untreated and vehicle
C57BL/6 mice [5] = assay: NanoString expression analysis of mouse cytokines and cytokine receptors; type: in vivo
Method: as §2, with “another. To neutralize secreted CXCL13, anti-CXCL13 antibody (mAB470, R&D Systems) was injected i.p. in sterile 1×PBS at a dose of 100 μg/mouse, once every 3 days, starting 3 days prior to implantation as well.” for “another.”
RNAs for mock-implanted (saline) treated controls, or for 500 μm alginate sphere-bearing C57BL/6 mouse strains (n=4/group), including wild type, knockouts, and serially immune depleted wild type mice, were isolated from tissue samples taken at various time points after implantation, as described. […] In general, respective RNAs were quantified, normalized to the appropriate loading concentration (100 ng/μl), and then 500 ng of each sample was processed according to NanoString manufacturer protocols for expression analysis via our customized multiplexed total (known) mouse cytokine and cytokine receptor expression panel, used for both immune strain comparisons with alginate, and material class comparisons just the wild type C57BL/6 strain. […] RNA levels (absolute copy numbers) were obtained following nCounter (NanoString Technologies Inc., Seattle, Wash.) quantification, and group samples were analyzed using nSolver analysis software (NanoString Technologies Inc., Seattle, Wash.).

C57BL/6 mice [6] = assay: Peritoneal lavage IP immune cell counts and FACS macrophage phenotype; type: in vivo
Method: Single-cell suspensions of freshly excised tissues were prepared using a gentleMACS Dissociator (Miltenyi Biotec, Auburn, Calif.) according to the manufacturer's protocol. Single-cell suspensions were prepared in a passive PEB dissociation buffer (1×PBS, pH 7.2, 0.5% BSA, and 2 mM EDTA) and suspensions were passed through 70 μm filters (Cat. #22363548, Fisher Scientific, Pittsburgh, Pa.). […] All tissue and material sample-derived, single-cell populations were then subjected to red blood cell lysis with 5 ml of 1×RBC lysis buffer (Cat. #00-4333, eBioscience, San Diego, Calif., USA) for 5 min at 4° C. The reaction was terminated by the addition of 20 ml of sterile 1×PBS. The cells remaining were centrifuged at 300-400g at 4° C. and resuspended in a minimal volume (˜50 μl) of eBioscience Staining Buffer (cat. #00-4222) for antibody incubation. […] For alpha smooth muscle actin (fibrosis) analysis, additional cell aliquots were also fixed in 1% paraformaldehyde and permeabilized with 0.1% triton X-100 before being stained with Cy3-conjugated anti-mouse αSM actin antibody (1:100) (Sigma Aldrich, St. Louis, Mo.). […]

C57BL/6 mice [7] = assay: Fibrosis of implanted material spheres retrieved after 14-day intraperitoneal implantation (phase contrast / brightfield imaging); type: in vivo
Text: All protocols were approved by the MIT Committee on Animal Care, and all surgical procedures and post-operative care were supervised by MIT Division of Comparative Medicine veterinary staff. All mice, wild type male immune-competent (non-diabetic), STZ-induced diabetic, as well as knockout C57BL/6 mice, were ordered pathogen-free from Jackson Laboratory (Bar Harbor, Me.) or Taconic (Hudson, N.Y.). The status of all mice was subsequently verified by testing sentinel animals, shown to be negative for at least 12 known mouse pathogens. Implanted mice were anesthetized with 3% isoflurane in oxygen and had their abdomens shaved and sterilized using betadine and isopropanol. C57BL/6-Nude (T KO, B6NU), C57BL/6-Rag2^null (T & B KO, RAGN12), C57BL/6-Rag2^null/Il2rγ^null (Rag2/γ, 4111) were ordered from Taconic (Hudson, N.Y.), and C57BL/6-IghM^null (BKO, 002288), (C57BL/6) B6.12956-Ccr6tm1(EGFP)Irw/J. (Ccr6, 013061), and C57BL/6-C3 KO (C3 KO, 003641) mice were ordered from Jackson Laboratory, Bar Harbor, Me.). Preoperatively, all mice received 0.05 mg/kg buprenorphine and 0.2 mL of 0.9% saline subcutaneously for pre-surgery analgesia and dehydration prevention. A midline (abdomen) incision (0.5 mm) was made and the peritoneal lining was exposed using blunt dissection. The peritoneal wall was then grasped with forceps and a 0.5-1 mm incision was made along the linea alba. A desired volume of spheres (all materials) were then loaded into a sterile pipette and implanted into the peritoneal cavity. The incision was then closed using 5-0 taper-tipped polydioxanone (PDS II) absorbable sutures, and the skin was closed using a wound clip and VetBond tissue glue. For subcutaneous implantation, ˜200-300 μL of 500 μm SLG20 spheres were injected s.c. following anesthesia with isofluorane. […]

[8] = RNA extracts 14 days post-implant, alginate

SMILES: COc1ccc(COc2ccc(Cc3cnc(N)nc3N)cc2OC)cc1 [GW2580]
- phagocytic activity [1]: no significant differences
- incision site closure at day 7 (C57BL/6 mice [2]; 1.5 cm skin incision, daily treatment, day 7, skin stretched apart): shut and not pulling apart
- scarring at day 14 (C57BL/6 mice [2]; 1.5 cm skin incision, daily treatment, day 14): very little scarring
- wound resolution and healing potential by width and depth measurements (histology) (C57BL/6 mice [2]; day 14 post-incision, vs vehicle): no significant (ns) differences
- CXCL10 protein level (CXCL10): increased reduction of CXCL10 back to wildtype levels
- VEGF protein production (VEGF): spared to normal levels
- macrophage, neutrophil and B cell presence on spheres (normalized to cell counts from 100 μl material) (C57BL/6 mice [3]; alginate spheres, 14 days post-i.p. implant): complete loss
- inhibition of host immune attack to alginate, glass and polystyrene spheres (C57BL/6 mice [3]; compared with clodrosome-based macrophage depletion, 14 days i.p.): as effective as clodrosome-based macrophage depletion
- ROS activity [4]: no differences
- expression of macrophage-associated (downstream) factors (FIG. 13F) (C57BL/6 mice [5]; [8]): inhibited
- expression of macrophage-specific factors (FIG. 13D) (C57BL/6 mice [5]; [8]): inhibited
- expression of non-immune-associated upstream inflammation-associated gene family (FIG. 18B) (C57BL/6 mice [5]; alginate-implanted mice, 14 days): decreased back to mock implanted (saline) control levels
- IP macrophage phenotype (CD68 & CD11b staining) (C57BL/6 mice [6]; peritoneal lavage after 4 and 14 days of daily treatment, vs vehicle): shifted (decreased CD68 & CD11b intensities)
- overall cell numbers in the peritoneal exudate (C57BL/6 mice [6]; vs untreated and vehicle-treated): unchanged
- fibrosis on 500 μm alginate spheres (C57BL/6 mice [7]; SLG20 alginate 500 μm spheres, 14 day implant, vs wild type/vehicle control): prevented the fibrotic response; also recorded: completely eliminated; also recorded: prevents fibrosis
- fibrosis on 500 μm glass ceramic spheres (C57BL/6 mice [7]; glass spheres, 14 days, vs saline vehicle): prevented the fibrotic response; also recorded: prevents fibrosis
- fibrosis on 500 μm polystyrene polymer spheres (C57BL/6 mice [7]; polystyrene spheres, 14 days, vs saline vehicle): prevented the fibrotic response; also recorded: prevents fibrosis
